Series [1] has as its target PAN (Influenza A virus, UniProt Q5EP34). The format is binding, H5N1 influenza virus A/Vietnam/1203/2004.
Series [2] has as its target PAN endonuclease (Influenza A virus, UniProt Q5EP34). The format is biochemical, H5N1 influenza virus A/Vietnam/1203/2004.
Series [3] has as its target influenza A polymerase. The following applies: read-out: Reported IC50; cited from earlier work.
The test system of series [4] is H1N1 influenza A virus (A/PuertoRico/8/34). In words: microbe, parasite or virus in culture. The format is cell-based. The following applies: H1N1, MDCK, 72 h, read-out: Antiviral Activity IC50.
A short description of series [5]: in vitro. The following applies: dog.
For series [6], the system named is influenza virus. To be noted: mouse, in vivo; cited from earlier work.
For series [7], the system named is influenza virus. To be noted: cited from earlier work.
For series [8], the system named is MDCK cells. The following applies: cited from earlier work.
Series [9] relates to H1N1 influenza A virus (A/PuertoRico/8/34). Details: method as in PMID 22211528. To be noted: plaque formation, MDCK cells, 72 h, measured previously; read-out: Antiviral Activity IC50; cited from earlier work.
Series [10] relates to influenza A polymerase. The format is biochemical, influenza A virus.

Like-named read-outs stand apart in the source and are kept apart here.

“2,4-dioxo-4-phenylbutanoic acid [Compound 2]”: the “ITC binding stoichiometry N (compound per PAN)” value in series [1] was determined as 1.86. Also, in series [2], the “Inhibition of PAN endonuclease activity” value is recorded as “inhibited PAN enzymatic activity in a dose-dependent manner”. By IC50 is commonly meant the midpoint of a concentration-inhibition curve. For the compound `CC(C)CC1=N/C(=C\c2ccc(F)cc2)C(=O)NC1=O` [Compound 9], the half-maximal inhibitory concentration (IC50) in [3] is > 365 µM. Take `O=C(CC(O)C(=O)O)c1ccccc1` (centres unmarked) [Compound 16]: the concentration for half-maximal inhibition (IC50) in series [3] was > 500 µM. `COC(=O)c1nc(-c2cn(C)cn2)[nH]c(=O)c1O` [Compound 23]: the 50% inhibitory concentration (IC50) in series [4] is > 50 µM. Moreover, in series [5], the CC50 at 72 h amounted to 53.2 ± 0.9 µM.

With `O=C(O)/C(O)=C/C(=O)C1(Cc2ccc(Cl)cc2)CCN(Cc2ccccc2)CC1` [Compound 3, L-742,001], in [6], the “Inhibition of viral replication in mice (qualitative)” value is reported as “dose-dependent inhibition of viral replication”. Further, the “Inhibition of PAN endonuclease activity” value in [2] is “inhibited PAN enzymatic activity in a dose-dependent manner”. In [7] (read-out: IC50, inhibition of viral replication in cell culture), the IC50 is 0.35 µM.

`O=C(O)/C(O)=C/C(=O)C1(Cc2ccc(Cl)cc2)CCCN(Cc2ccccc2)C1` [Compound 20, L-735,882]: the IC50 in [3] is 1.1 µM. Also, the “Inhibition of viral replication in cell culture (qualitative)” value (“Inhibition … in cell culture (qualitative)” below) in series [7] is listed as “dose-dependent inhibition of viral replication in cell culture”. In the case of `O=C1Cc2ccccc2C(=O)N1O` [Compound 1], in series [2], the “Inhibition of PAN endonuclease activity” value is reported as “inhibited PAN enzymatic activity in a dose-dependent manner”. As to `O=C(O)/C(O)=C/C(=O)C1(Cc2ccc(Cl)cc2)CCN(CC2CCCCC2)CC1` [Compound 22], in series [7], the “Inhibition … in cell culture (qualitative)” value is given as “dose-dependent inhibition of viral replication in cell culture”. In the case of `O=C(O)c1nc(-c2cnccn2)nc(O)c1O` [Compound 24], the CC50 in series [8] was > 60 µM. Also, the half-inhibitory concentration (IC50) in series [9] was > 50 µM. Take `O=C(O)/C(O)=C/C(=O)C1(Cc2ccc(Cl)cc2)CCCN(S(=O)(=O)Cc2ccccc2)C1` (centres unmarked) [Compound 21]: in series [3], the IC50 is 0.19 µM. In series [7], the “Inhibition … in cell culture (qualitative)” value is listed as “dose-dependent inhibition of viral replication in cell culture”.

For `O=C(O)/C(O)=C/S(=O)(=O)c1ccccc1` [Compound 19], the IC50 in [3] is > 500 µM. `CC(C)CC1=N/C(=C\c2ccc(F)cc2)C(=O)N(O)C1=O` [Compound 8]: in [3], the half-inhibitory concentration (IC50) is 0.9 µM. Further, the “Fold increase in potency compared with Flutimide” value in series [10] is listed as 6 fold. Take `CC(C)C(=O)C=C(O)C(=O)O` [Compound 13]: the IC50 in [3] is 56.7 µM. Further, the “Fold reduction in potency compared with 2” value in series [10] turned out to be 2.6 fold. With `CC(=O)Nc1cccc(-c2nc(C(=O)O)c(O)c(=O)[nH]2)c1` [Compound 5, 2-(3-acetamidophenyl)-5-hydroxy-6-oxo-1,6-dihydropyrimidine-4-carboxylic acid], in [4], the IC50 is > 50 µM. Also, in series [2], the “Inhibition of PAN endonuclease activity” value is “inhibit PAN activity”. In series [5], the CC50 at 72 h was determined as 48.7 ± 1.2 µM.

Regarding `CC(C)/C=C1\N=C(CC(C)C)C(=O)N(O)C1=O` [Compound 7, Flutimide], the IC50 in series [3] is 5.5 µM. Take `C[C@@H](NC(=O)c1nc(-c2cnccn2)[nH]c(=O)c1O)c1ccccc1` [Compound 26]: the CC50 in series [8] is > 60 µM. The IC50 in [9] is 12.68 ± 0.08 µM. In the case of `Cn1cnc(-c2nc(C(=O)O)c(O)c(=O)[nH]2)c1` [Compound 4, 5-hydroxy-2-(1-methyl-1H-imidazol-4-yl)-6-oxo-1,6-dihydropyrimidine-4-carboxylic acid], the IC50 in series [4] was > 50 µM. Moreover, the “Inhibition of PAN endonuclease activity” value in [2] is “inhibit PAN activity”. For the same compound, the CC50 at 72 h in series [5] is > 60 µM. As to `NC(CC(=O)c1ccccc1)C(=O)O` (centres unmarked) [Compound 17], the half-maximal inhibitory concentration (IC50) in series [3] is > 500 µM. As to `COC(=O)c1nc(-c2cnccn2)[nH]c(=O)c1O` [Compound 25], the half-maximal inhibitory concentration (IC50) in [4] is > 50 µM. For the same compound, the CC50 at 72 h in series [5] was > 60 µM.

Turning to `CC(=O)C=C(O)C(=O)O` [Compound 14], the IC50 in series [3] was 307 µM. The “Fold reduction in potency compared with 2” value in series [10] came to 14 fold. In the case of `O=C1Cc2ccccc2CC(=O)N1O` [Compound 11], the IC50 in series [3] is > 1000 µM. As to `O=C(O)c1cccc(O)c1O` [Compound 6, dihydroxybenzoic acid], in series [2], the “Inhibition of PAN endonuclease activity” value was “little ability to inhibit PAN endonuclease activity”.

The record behind these values is article PMC3410894, “Structural and Biochemical Basis for Development of Influenza Virus Inhibitors Targeting the PA Endonuclease” (PLoS Pathogens, 2012).
